Source: PubChem BioAssay (NCI)
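Dose response: 5 concentrations. Exposure: 48 h. Format: 96-well plates. Endpoint: linear interpolation; highest concentration if not reached. Here, GI50 denotes the concentration required for 50% inhibition of growth. At the TGI there is no net growth.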

Tests used:
Assay in all cases: NCI anticancer screen, dose series, 48 h
CCRF-CEM leukemia = tested on: CCRF-CEM leukemia
ACHN renal = tested on: ACHN renal
HCT-116 colon = tested on: HCT-116 colon
MDA-MB-435 = tested on: MDA-MB-435
M14 melanoma = tested on: M14 melanoma
SNB-19 CNS = tested on: SNB-19 CNS
CAKI-1 renal = tested on: CAKI-1 renal
RXF 393 renal = tested on: RXF 393 renal
HCC-2998 colon = tested on: HCC-2998 colon
LOX IMVI melanoma = tested on: LOX IMVI melanoma

Row | Compound | GI50 (CCRF-CEM leukemia) [µM] | TGI (CCRF-CEM leukemia) [µM] | GI50 (ACHN renal) [µM] | TGI (ACHN renal) [µM] | GI50 (HCT-116 colon) [µM] | TGI (HCT-116 colon) [µM] | GI50 (MDA-MB-435) [µM] | TGI (MDA-MB-435) [µM] | GI50 (M14 melanoma) [µM] | TGI (M14 melanoma) [µM] | GI50 (SNB-19 CNS) [µM] | TGI (SNB-19 CNS) [µM] | GI50 (CAKI-1 renal) [µM] | TGI (CAKI-1 renal) [µM] | GI50 (RXF 393 renal) [µM] | TGI (RXF 393 renal) [µM] | GI50 (HCC-2998 colon) [µM] | TGI (HCC-2998 colon) [µM] | GI50 (LOX IMVI melanoma) [µM] | TGI (LOX IMVI melanoma) [µM]
1 | COC1(C(=O)N2Cc3nc(Cl)nc(N[C@H](C)c4cc(N)cc(C(F)(F)F)c4)c3C2)CCOCC1 | 31.3 | 99 | 18.5 | 71.4 | 15.2 | 30.4 | 18.6 | 41.4 | 17.8 | 40.6 | 14.5 | 72 | 25.4 | > 100 | 15.8 | 43.6 | 20.8 | 59.2 | 15.6 | 29.2
2 | Cc1ccc2c(C(C[N+](=O)[O-])c3cccs3)c(-c3ccccc3)[nH]c2c1 (configuration not stated) | 1.38 | > 33.3 | 2.15 | 13.3 | 1.31 | 4.56 | 0.822 | 2.14 | 1.28 | 5.57 | 1.72 | 7.05 | 1.04 | 5.12 | 1.16 | 4.36 | 3.61 | 8.01 | 1.78 | 6.05
3 | CC1(C)N=C(N)N=C(N)N1c1ccc(CCCCc2ccc(S(=O)(=O)F)cc2)cc1 | 0.561 | 19.7 | 4.68 | > 100 | 0.373 | 15.8 | 0.506 | 17 | 1.16 | 23.3 | 2.58 | 19.4 | 3.7 | > 100 | 0.79 | > 100 | 4.55 | 26.7 | 0.488 | 15
4 | CC(C)(C)OC(=O)NC(Cc1ccccc1)C(=O)OCN1C(=O)C2C3C=CC(C2C1=O)C1C2C(=O)N(COC(=O)C(Cc4ccccc4)NC(=O)OC(C)(C)C)C(=O)C2C31 (configuration not stated) |  | > 68.5 |  | > 100 |  | > 88.5 |  | > 100 |  | > 100 |  | > 82.7 |  | > 100 |  | > 64.2 |  | > 100 |  | > 100
5 | Brc1cccc(-c2cc(-c3ccc4c(c3)OCCO4)[nH]n2)c1 | 1.59 | 250 | 1.54 | 33.2 | 1.13 | 29.4 | 0.186 | 0.97 | 0.729 | 31.1 | 3.05 | 50.5 | 0.953 | 29.8 | 1.77 | 25.7 | 3.92 | 33.4 | 1.53 | 30.4
6 | CCn1c(-c2nonc2N)nc2c(C#CCN)ncc(OCCCN)c21 | > 25 | > 25 | > 25 | > 25 | > 25 | > 25 | > 25 | > 25 | > 25 | > 25 | > 25 | > 25 | > 25 | > 25 | > 25 | > 25 | > 25 | > 25 | > 25 | > 25
7 | NC(CO)Cc1cnc[nH]1 (configuration not stated) | > 100 | > 100 | > 100 | > 100 | > 100 | > 100 | > 100 | > 100 |  | > 100 | > 100 | > 100 |  | > 100 |  | > 10 | > 100 | > 100 | > 100 | > 100
8 | CN1CCN(Cc2ccc(C(=O)Nc3cncc(C#Cc4cnc(N)c5ccccc45)c3)cc2C(F)(F)F)CC1 | 2.91 | 9.07 | 1.52 | 2.97 | 1.36 | 2.7 | 1.71 | 3.12 | 4.22 | 14.8 | 2.49 | 5.69 | 1.7 | 3.69 | 1.55 | 3.01 | 2.19 | 4.74 | 1.75 | 3.17
9 | COc1cc2c3c(cccc3c1)C(=O)N(CCN1CCCC1)C2=O | 2.86 | > 100 | 0.764 | > 100 | 0.753 | > 100 | 2.81 | 8.25 | 2.38 | 5.66 | 2.83 | 58.6 | 2.56 | > 100 | 1.41 | 3.54 | 2.63 | 7.19 | 1.68 | 4.42
10 | CN1CCN(CC#Cc2cccc(C(=O)c3cnn(-c4ccc(F)cc4)c3N)c2)CC1 | > 25 | > 25 | > 25 | > 25 | > 25 | > 25 | > 25 | > 25 | > 25 | > 25 | > 25 | > 25 | > 25 | > 25 | > 25 | > 25 | > 25 | > 25 | > 25 | > 25
11 | COC(=O)C(=O)CC(=O)CCn1ncc(Cl)c(Cl)c1=O |  | 9.72 |  | 34.9 |  | 23.7 | 3.37 | 12.8 |  | 26.7 |  | 32.5 |  | 9.42 |  | 33.9 |  | 13.1 |  | 15.3
12 | COc1cc(/C=C\[N+](=O)[O-])ccc1O | 2.25 | 7.23 | 2.36 | 6.01 | 1.83 | 3.43 | 2.16 | 5.98 | 2.05 | 4.98 | 4.92 | 18 | 2.85 | 10.9 | 1.91 | 3.48 | 1.98 | 3.63 | 1.74 | 3.39
13 | C=C1C(O)C2CCC(C)(C)C(=O)C2=C(CC(C)C)C12CC2 (configuration not stated) | 36.8 | > 100 | 39.3 | > 100 | 37.2 | > 100 | 67.4 | > 100 | 80.8 | > 100 | 59.5 | > 100 | 31.2 | 86.6 | 53.1 | > 100 | 16.6 | 65.8 | 68.5 | > 100
14 | O=C(CCN1CCN(c2cnc3ccccc3n2)CC1)c1csc2ccccc12 | 19.2 | > 100 | 19.5 | 42.1 | 36.2 | > 100 | > 100 | > 100 | 75.2 | > 100 | > 100 | > 100 | 18.9 | 35.8 | 18.7 | 49.5 | > 100 | > 100 | 26 | 70.1
15 | O=C(NNc1nc2c(F)cccc2n2cccc12)c1cnccn1 | 0.126 |  | 0.25 | 36 | 0.214 | 23.7 | 0.821 | 26.3 | 0.269 | 11.7 | 0.545 | > 100 | 0.628 | 16.4 | 0.986 | 7.29 | 0.867 | 28.6 | 0.3 | 5.83
16 | Cc1cc([C@@H](C)Nc2ccccc2C(=O)O)c2nc(N3CCOCC3)cc(=O)n2c1 | > 10 | > 10 | > 10 | > 10 | 2.76 | > 10 | > 10 | > 10 | > 10 | > 10 | > 10 | > 10 | 6.28 | > 10 | 0.0564 | 1.33 | > 10 | > 10 | 6.73 | > 10
17 | CN=C(N)N/N=C(\c1ccccc1)c1ccc(Br)cc1 | 0.32 | 4.66 | 0.467 | 10.1 | 0.309 | 3.3 | 0.179 | 0.511 | 0.272 | 0.872 | 0.6 | 13.9 | 0.596 | 13.2 | 0.247 | 0.711 | 0.38 | 1.37 | 0.494 | 2.97
18 | NC(N)=N/N=C(/c1ccccc1)c1ccc(F)cc1 | 0.493 | > 74.6 | 0.75 | 16.4 | 0.33 | 4.15 | 0.203 | 0.834 | 0.209 | 0.506 | 0.476 | 19.5 | 0.404 | 16.1 | 0.291 | 3.54 | 0.416 | 2.09 | 0.513 | 10.7
19 | N#Cc1c(NC(=O)c2cccc(C(F)(F)F)c2)sc2c1CCC(=O)C2 | 0.262 | > 100 | 0.327 | 0.985 | 0.336 | 1.56 | 0.651 | 2.11 | 0.525 | 2.22 | 0.445 | 2.36 | 0.287 | 1 | 0.391 | 1.45 | 1.61 | 3.37 | 0.369 | 1.68
